# According to doi:10.1101/2023.10.03.560722, “Drug Discovery in Low Data Regimes: Leveraging a Computational Pipeline for the Discovery of Novel SARS-CoV-2 Nsp14-MTase Inhibitors” (bioRxiv, 2024):
# Like-named read-outs stand apart in the source and are kept apart here.
# Key:
# Assay in all cases: human MTase selectivity panel
# Format in all cases: biochemical
# ASH1L = ASH1L (Homo sapiens, UniProt Q9NR48)
# PRMT1 = PRMT1 (Homo sapiens, UniProt Q99873)
# PRMT9 = target: T1, PRMT9 (Homo sapiens, UniProt Q6P2P2)
# T1 sequence (Q6P2P2 1-845): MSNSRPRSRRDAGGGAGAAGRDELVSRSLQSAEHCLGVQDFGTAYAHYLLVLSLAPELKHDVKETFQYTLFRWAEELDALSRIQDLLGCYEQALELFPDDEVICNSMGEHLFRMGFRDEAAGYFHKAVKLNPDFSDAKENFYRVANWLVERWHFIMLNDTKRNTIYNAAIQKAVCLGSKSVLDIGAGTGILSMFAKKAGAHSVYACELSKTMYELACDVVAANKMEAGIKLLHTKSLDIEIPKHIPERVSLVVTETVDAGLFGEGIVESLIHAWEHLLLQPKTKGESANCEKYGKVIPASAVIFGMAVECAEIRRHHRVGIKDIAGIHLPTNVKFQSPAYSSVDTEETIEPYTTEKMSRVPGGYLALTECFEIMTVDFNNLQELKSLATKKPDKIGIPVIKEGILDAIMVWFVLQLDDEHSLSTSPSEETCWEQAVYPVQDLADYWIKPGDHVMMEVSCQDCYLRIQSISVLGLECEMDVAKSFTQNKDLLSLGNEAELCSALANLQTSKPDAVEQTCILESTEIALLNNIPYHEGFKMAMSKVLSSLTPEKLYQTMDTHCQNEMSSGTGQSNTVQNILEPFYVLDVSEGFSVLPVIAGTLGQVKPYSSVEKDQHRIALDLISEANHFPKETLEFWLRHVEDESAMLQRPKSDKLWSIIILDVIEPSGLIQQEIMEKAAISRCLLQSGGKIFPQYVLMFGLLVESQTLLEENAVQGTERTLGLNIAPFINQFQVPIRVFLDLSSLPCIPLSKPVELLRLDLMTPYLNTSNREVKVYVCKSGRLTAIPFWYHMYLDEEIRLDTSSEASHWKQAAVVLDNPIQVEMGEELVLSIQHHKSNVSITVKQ
# SUV39H1 = target: T2, SUV39H1 (Homo sapiens, UniProt O43463)
# T2 sequence (O43463 1-412): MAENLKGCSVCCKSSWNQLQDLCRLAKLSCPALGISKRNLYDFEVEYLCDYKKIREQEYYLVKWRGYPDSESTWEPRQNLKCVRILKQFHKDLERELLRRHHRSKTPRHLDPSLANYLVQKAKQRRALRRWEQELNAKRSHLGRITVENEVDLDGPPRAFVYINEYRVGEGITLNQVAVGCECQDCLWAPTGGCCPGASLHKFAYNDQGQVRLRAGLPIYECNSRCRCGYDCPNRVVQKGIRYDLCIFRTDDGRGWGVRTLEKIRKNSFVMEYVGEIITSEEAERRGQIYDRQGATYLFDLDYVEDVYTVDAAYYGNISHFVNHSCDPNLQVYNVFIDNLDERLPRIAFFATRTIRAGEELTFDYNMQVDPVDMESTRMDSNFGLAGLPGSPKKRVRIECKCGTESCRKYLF
# NSD3 = target: T3, NSD3 (Homo sapiens, UniProt Q9BZ95)
# T3 sequence (Q9BZ95 1-1437): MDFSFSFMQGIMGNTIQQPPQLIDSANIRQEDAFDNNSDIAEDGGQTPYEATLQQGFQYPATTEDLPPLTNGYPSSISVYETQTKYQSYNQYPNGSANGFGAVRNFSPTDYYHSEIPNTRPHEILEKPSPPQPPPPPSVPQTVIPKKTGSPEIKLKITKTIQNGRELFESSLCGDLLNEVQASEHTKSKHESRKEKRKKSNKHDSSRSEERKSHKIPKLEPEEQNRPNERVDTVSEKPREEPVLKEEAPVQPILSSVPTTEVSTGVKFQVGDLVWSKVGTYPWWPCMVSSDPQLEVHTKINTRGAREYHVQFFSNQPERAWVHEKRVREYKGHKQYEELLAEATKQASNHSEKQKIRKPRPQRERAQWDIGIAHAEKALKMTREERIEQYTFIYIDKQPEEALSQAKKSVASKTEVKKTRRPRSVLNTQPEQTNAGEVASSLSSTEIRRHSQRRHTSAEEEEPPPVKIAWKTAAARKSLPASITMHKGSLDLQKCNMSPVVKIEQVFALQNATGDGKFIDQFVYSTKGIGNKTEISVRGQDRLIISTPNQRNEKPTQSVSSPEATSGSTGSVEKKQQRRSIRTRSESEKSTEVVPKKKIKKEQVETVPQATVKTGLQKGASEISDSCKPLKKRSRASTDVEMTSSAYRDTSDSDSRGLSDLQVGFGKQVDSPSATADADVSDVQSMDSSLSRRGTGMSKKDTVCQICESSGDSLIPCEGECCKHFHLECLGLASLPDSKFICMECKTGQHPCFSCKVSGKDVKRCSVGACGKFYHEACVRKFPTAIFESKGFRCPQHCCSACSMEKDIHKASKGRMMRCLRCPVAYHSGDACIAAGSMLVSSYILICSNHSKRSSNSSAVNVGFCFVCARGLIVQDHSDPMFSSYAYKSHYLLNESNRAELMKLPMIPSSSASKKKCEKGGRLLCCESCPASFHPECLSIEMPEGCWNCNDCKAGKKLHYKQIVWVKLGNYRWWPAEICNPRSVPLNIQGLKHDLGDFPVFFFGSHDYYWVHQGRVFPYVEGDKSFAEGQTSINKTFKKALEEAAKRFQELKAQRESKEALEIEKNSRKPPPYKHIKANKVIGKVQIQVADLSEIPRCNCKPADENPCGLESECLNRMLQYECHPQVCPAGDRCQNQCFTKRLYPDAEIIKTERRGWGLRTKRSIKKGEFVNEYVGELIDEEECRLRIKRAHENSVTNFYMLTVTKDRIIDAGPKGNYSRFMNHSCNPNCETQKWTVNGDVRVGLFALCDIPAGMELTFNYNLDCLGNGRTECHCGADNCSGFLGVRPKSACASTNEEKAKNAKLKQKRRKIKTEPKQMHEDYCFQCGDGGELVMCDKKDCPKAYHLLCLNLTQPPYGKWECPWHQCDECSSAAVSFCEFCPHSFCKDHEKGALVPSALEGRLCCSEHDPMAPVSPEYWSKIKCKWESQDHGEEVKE
# [1] = average ± SD, read-out: Activity (%) at 10 µM Average
# [2] = read-out: Activity (%) at 10 µM Replicate 1
# [3] = read-out: Activity (%) at 10 µM Replicate 2
# [4] = read-out: Activity (%) at 10 µM Replicate 3
# Chain of PRMT1 (Q99873 whole entry): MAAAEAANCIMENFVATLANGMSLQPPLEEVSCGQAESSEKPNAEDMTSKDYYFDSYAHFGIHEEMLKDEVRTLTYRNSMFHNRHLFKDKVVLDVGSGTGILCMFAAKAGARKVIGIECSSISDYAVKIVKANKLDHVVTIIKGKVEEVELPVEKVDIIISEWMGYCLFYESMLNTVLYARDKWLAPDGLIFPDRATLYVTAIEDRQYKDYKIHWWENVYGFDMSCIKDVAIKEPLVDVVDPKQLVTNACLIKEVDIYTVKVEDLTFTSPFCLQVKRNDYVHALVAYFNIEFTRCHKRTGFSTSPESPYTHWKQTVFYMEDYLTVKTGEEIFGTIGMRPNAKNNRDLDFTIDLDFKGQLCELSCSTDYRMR
structure (smiles),measurement,setting,value
Nc1ncnc2c1ncn2[C@@H]1O[C@H](CSCc2ccc(Cl)cc2)[C@@H](O)[C@H]1O [NSC620333],activity at 10 µM,ASH1L; [1],105 ± 8%
same,activity at 10 µM,ASH1L; [2],113%
same,activity at 10 µM,ASH1L; [3],97%
same,activity at 10 µM,ASH1L; [4],104%
same,activity at 10 µM,PRMT1; [1],91 ± 6%
same,activity at 10 µM,PRMT1; [2],97%
same,activity at 10 µM,PRMT1; [3],94%
same,activity at 10 µM,PRMT1; [4],84%
same,activity at 10 µM,PRMT9; [1],117 ± 3%
same,activity at 10 µM,PRMT9; [2],118%
same,activity at 10 µM,PRMT9; [3],118%
same,activity at 10 µM,PRMT9; [4],113%
same,activity at 10 µM,SUV39H1; [1],96 ± 4%
same,activity at 10 µM,SUV39H1; [2],99%
same,activity at 10 µM,SUV39H1; [3],91%
same,activity at 10 µM,SUV39H1; [4],97%
same,activity at 10 µM,NSD3; [1],110 ± 5%
same,activity at 10 µM,NSD3; [2],112%
same,activity at 10 µM,NSD3; [3],104%
same,activity at 10 µM,NSD3; [4],115%
